Laboratory results taken from publication PMC6308302, “Identification of Pharmacokinetic Markers for Guanxin Danshen Drop Pills in Rats by Combination of Pharmacokinetics, Systems Pharmacology, and Pharmacodynamic Assays” (Frontiers in Pharmacology, 2018).
“Also recorded” adds a separate entry of the source. Marks after values point to notes of the source that are not given here.

Key:
[1] = Aqueous solubility test (vortexing in water); assay type: physicochemical; settings: for solubility at 5 min: thermodynamic from solid, determined, water, 25 °C, 1 atm; for solubility in water (in words): water at 25 °C
Experimental: Aqueous solubility (S) test of the 17 ingredients was performed by vortexing 10 mg of each ingredient in […] water in a test tube at ambient temperature and 1 atm. After vortexing for 5 min, if the solution is clear, the tested object will be considered as soluble in water. In silico assessment of the physicochemical properties governing permeation and intestinal absorption was carried out for the 17 ingredients studied. Theory aqueous solubility (S) was calculated with ALOGPS 2.1 online software via the Virtual Computational Chemistry Laboratory service (Chemoinformatics Group, Neuherberg, Germany) (VCCLAB^1). The octanol–water partition coefficient (cLogP), the total hydrogen bond count (donors and acceptors), and topological polar surface area (TPSA) were determined using the Molinspiration Property Calculator (Molinspiration Cheminformatics, Bratislava, Slovak Republic^2). Lipinski’s rule of 5 was used to predict the permeability of the compound ([Lipinski et al., 2001]).

Caco-2 cell monolayers = settings: ref Lu et al., 2008, Liu et al., 2009, Hu et al., 2014, Bowles et al., 2017, cited from earlier work; for Papp(apical→basolateral) / Papp(basolateral→apical): Caco-2 cell monolayers, from literature; for apparent permeability in Caco-2 cell monolayers: previous results
[2] = Stability tests in rat plasma (QC samples, HPLC-MS); settings: n=5
Source text: Accuracy and precision were expressed by relative error (RE) and coefficient of variance (RSD), respectively.

[3] = Multiple component PK study in rat plasma after p.o. GDDP (HPLC-MS); settings: for determination in rat plasma at the planned successive PK time points / detection in rat plasma: GDDP 0.8 g/kg p.o.; for determination in rat plasma at the planned successive PK time points: 5, 10, 15, 30, 45, 60, and 120 min, LOQ 1.0–1.4 ng/mL; for detection in rat plasma: at 5, 10, 15, 30, 45, or 60 min, LOD 0.5–0.7 ng/mL; for AUC(0-inf) / AUC(0-t) / MRT inf / MRT last / Tmax / Cmax / half-life: Sprague-Dawley, rat, plasma, po
[4] = test system: isoprenaline-induced MI in mice; assay: In vivo anti-MI study: isoprenaline-induced myocardial injury (ECG, H&E histology); settings: for Histopathology of heart tissue (H&E): 40 mg/kg p.o. for 7 days, isoprenaline-induced MI, 40 mg/kg; for ECG (lead II) findings on the fifth day of the trial: 40 mg/kg p.o., isoprenaline 5 mg/kg on days 4 and 5
[5] = 24h in auto-sampler vials, spiked 2 ng/mL
[6] = 24h in auto-sampler vials, spiked 400 ng/mL
[7] = 24h in auto-sampler vials, spiked 1600 ng/mL
[8] = Placing plasma for 6h at 4°C, spiked 2 ng/mL
[9] = Placing plasma for 6h at 4°C, spiked 400 ng/mL
[10] = Placing plasma for 6h at 4°C, spiked 1600 ng/mL
[11] = three freeze-thaw cycles, rat plasma, spiked 2 ng/mL
[12] = three freeze-thaw cycles, rat plasma, spiked 400 ng/mL
[13] = three freeze-thaw cycles, rat plasma, spiked 1600 ng/mL
[14] = 0.4 g/kg, Cmax, rat plasma, GDDP 0.4 g/kg p.o. (Low dose group), n=3
[15] = 0.4 g/kg, t1/2 β, rat plasma, GDDP 0.4 g/kg p.o. (Low dose group), n=3
[16] = 0.8 g/kg, Cmax (high / low plasma drug concentrations), rats, GDDP 0.4 and 0.8 g/kg p.o., classification
[17] = 0.8 g/kg, Cmax, rat plasma, GDDP 0.8 g/kg p.o. (High dose group), n=3
[18] = 0.8 g/kg, t1/2 β (fast / slow elimination type), rats, GDDP 0.4 and 0.8 g/kg p.o., classification
[19] = 0.8 g/kg, t1/2 β, rat plasma, GDDP 0.8 g/kg p.o. (High dose group), n=3
[20] = rat plasma, GDDP 0.4 g/kg p.o. (Low dose group), n=3
[21] = rat plasma, GDDP 0.8 g/kg p.o. (High dose group), n=3

O=C(O)/C=C/c1ccc(O)c(O)c1 [CA, caffeic acid]
solubility at 5 min [1]: > 10000 µg/mL | Papp(apical→basolateral) (Caco-2 cell monolayers): 4.35^b ×10^-6 cm/s | Papp(basolateral→apical) (Caco-2 cell monolayers): 7.74^b ×10^-6 cm/s | apparent permeability in Caco-2 cell monolayers (Caco-2 cell monolayers): ≥ 10^-6 cm/s

C[C@H]1COC2=C1C(=O)C(=O)c1c2ccc2c1CCCC2(C)C [CTS, cryptotanshinone]
solubility in water (in words) [1]: insoluble | Papp(apical→basolateral) (Caco-2 cell monolayers): 1.59^d ×10^-6 cm/s | Papp(basolateral→apical) (Caco-2 cell monolayers): 8.36^d ×10^-6 cm/s | apparent permeability in Caco-2 cell monolayers (Caco-2 cell monolayers): ≥ 10^-6 cm/s | Stability: Measured [2, 5]: 1.79 ± 0.36 ng/mL | Stability: RE [2, 5]: -10.32% | Stability: Measured [2, 6]: 478.43 ± 27.22 ng/mL | Stability: RE [2, 6]: 19.61% | Stability: Measured [2, 7]: 1852.38 ± 164.86 ng/mL | Stability: RE [2, 7]: 15.77% | Stability: Measured [2, 8]: 1.79 ± 0.26 ng/mL | Stability: RE [2, 8]: -10.47% | Stability: Measured [2, 9]: 438.37 ± 50.69 ng/mL | Stability: RE [2, 9]: 9.59% | Stability: Measured [2, 10]: 1890.21 ± 223.22 ng/mL | Stability: RE [2, 10]: 18.14% | Stability: Measured [2, 11]: 1.62 ± 0.22 ng/mL | Stability: RE [2, 11]: -19.00% | Stability: Measured [2, 12]: 457.79 ± 26.04 ng/mL | Stability: RE [2, 12]: 14.45% | Stability: Measured [2, 13]: 1871.43 ± 321.89 ng/mL | Stability: RE [2, 13]: 16.96% | determination in rat plasma at the planned successive PK time points [3]: could be determined | detection in rat plasma [3]: could be detected | AUC(0-inf) ([3]; 0.4 g/kg): 1.72 ± 1.24 ng·h/mL | AUC(0-t) ([3]; 0.4 g/kg): 0.84 ± 0.03 ng·h/mL | MRT inf ([3]; 0.4 g/kg): 41.4 ± 39.6 min | MRT last ([3]; 0.4 g/kg): 13.8 ± 1.8 min | Tmax ([3]; 0.4 g/kg): 15 min | Cmax [3, 14]: 2.33 ± 0.49 ng/mL | half-life [3, 15]: 27 ± 27 min | AUC(0-inf) ([3]; 0.8 g/kg): 3.24 ± 1.09 ng·h/mL | AUC(0-t) ([3]; 0.8 g/kg): 2.76 ± 1.18 ng·h/mL | MRT inf ([3]; 0.8 g/kg): 50.4 ± 18 min | MRT last ([3]; 0.8 g/kg): 33.6 ± 13.2 min | Tmax ([3]; 0.8 g/kg): 15 min | Cmax [3, 16]: < 10 ng/mL | Cmax [3, 17]: 4.09 ± 1.47 ng/mL | half-life [3, 18]: < 120 min | half-life [3, 19]: 34.2 ± 15.6 min | Cltot [3, 20]: 3485.3 ± 2517.8 mL/min/kg | Cltot [3, 21]: 2924 ± 826.2 mL/min/kg | Histopathology of heart tissue (H&E) [4]: remarkably severe histological damage with extensive myocardial lysis and architecture wrecking; also recorded: extremely severe histological damage with extensive myocardial lysis and architecture wrecking | ECG (lead II) findings on the fifth day of the trial [4]: T waves reversed or decreased

Cc1cccc2c3c(ccc12)C1=C(C(=O)C3=O)[C@@H](C)CO1 [DHTS I, dihydrotanshinone I]
solubility in water (in words) [1]: insoluble | Papp(apical→basolateral) (Caco-2 cell monolayers): 1.49^d ×10^-6 cm/s | Papp(basolateral→apical) (Caco-2 cell monolayers): 8.28^d ×10^-6 cm/s | apparent permeability in Caco-2 cell monolayers (Caco-2 cell monolayers): ≥ 10^-6 cm/s | Stability: Measured [2, 5]: 2.21 ± 0.23 ng/mL | Stability: RE [2, 5]: 10.31% | Stability: Measured [2, 6]: 464.67 ± 43.51 ng/mL | Stability: RE [2, 6]: 16.17% | Stability: Measured [2, 7]: 1644.43 ± 109.72 ng/mL | Stability: RE [2, 7]: 2.78% | Stability: Measured [2, 8]: 2.23 ± 0.06 ng/mL | Stability: RE [2, 8]: 11.41% | Stability: Measured [2, 9]: 456.85 ± 38.51 ng/mL | Stability: RE [2, 9]: 14.21% | Stability: Measured [2, 10]: 1735.14 ± 230.11 ng/mL | Stability: RE [2, 10]: 8.45% | Stability: Measured [2, 11]: 2.015 ± 0.18 ng/mL | Stability: RE [2, 11]: 2.73% | Stability: Measured [2, 12]: 437.97 ± 37.90 ng/mL | Stability: RE [2, 12]: 9.49% | Stability: RE [2, 13]: 0.88% | determination in rat plasma at the planned successive PK time points [3]: could be determined | detection in rat plasma [3]: could be detected | AUC(0-inf) ([3]; 0.4 g/kg): 14.2 ± 17.2 ng·h/mL | AUC(0-t) ([3]; 0.4 g/kg): 12.1 ± 14.4 ng·h/mL | MRT inf ([3]; 0.4 g/kg): 416 ± 443 min | MRT last ([3]; 0.4 g/kg): 310 ± 313 min | Tmax ([3]; 0.4 g/kg): 82.8 ± 52.8 min | Cmax [3, 14]: 1.9 ± 1.57 ng/mL | half-life [3, 15]: 161 ± 143 min | AUC(0-inf) ([3]; 0.8 g/kg): 16.1 ± 2.84 ng·h/mL | AUC(0-t) ([3]; 0.8 g/kg): 14.7 ± 2.51 ng·h/mL | MRT inf ([3]; 0.8 g/kg): 436 ± 208 min | MRT last ([3]; 0.8 g/kg): 303 ± 122 min | Tmax ([3]; 0.8 g/kg): 49.8 ± 8.4 min | Cmax [3, 16]: < 10 ng/mL | Cmax [3, 17]: 3.1 ± 0.49 ng/mL | half-life [3, 18]: > 156 min | half-life [3, 19]: 334 ± 179 min | Cltot [3, 20]: 101 ± 122 mL/min/kg | Cltot [3, 21]: 47.7 ± 7.67 mL/min/kg | Histopathology of heart tissue (H&E) [4]: remarkably severe histological damage with extensive myocardial lysis and architecture wrecking; also recorded: extremely severe histological damage with extensive myocardial lysis and architecture wrecking | ECG (lead II) findings on the fifth day of the trial [4]: T waves reversed or decreased

O=C(O)C(O)Cc1ccc(O)c(O)c1 (stereo not shown) [DSS, danshensu]
solubility at 5 min [1]: > 10000 µg/mL | detection in rat plasma at more than 15 min after administration ([3]; GDDP 0.4 and 0.8 g/kg B.W.): could not be detected | detection in rat plasma [3]: could be detected | plasma level ([3]; rats, GDDP 0.4 and 0.8 g/kg, more than 15 min after administration, below LOD): < 0.5 ng/mL

O=C(/C=C/c1ccc(O)c2c1[C@H](C(=O)O)[C@@H](c1ccc(O)c(O)c1)O2)O[C@H](Cc1ccc(O)c(O)c1)C(=O)O [LA, lithospermic acid]
solubility at 5 min [1]: > 10000 µg/mL | Papp(apical→basolateral) (Caco-2 cell monolayers): 0.0816^a ×10^-6 cm/s | Papp(basolateral→apical) (Caco-2 cell monolayers): 0.0413^a ×10^-6 cm/s

O=C(O)c1ccc(O)c(O)c1 [PCA, protocatechuic acid]
solubility at 5 min [1]: > 10000 µg/mL | Papp(apical→basolateral) (Caco-2 cell monolayers): 4.52^b ×10^-6 cm/s | Papp(basolateral→apical) (Caco-2 cell monolayers): 6.91^b ×10^-6 cm/s | apparent permeability in Caco-2 cell monolayers (Caco-2 cell monolayers): ≥ 10^-6 cm/s | detection in rat plasma [3]: could be detected

O=Cc1ccc(O)c(O)c1 [PCAL, protocatechuic aldehyde]
solubility at 5 min [1]: > 10000 µg/mL | Papp(apical→basolateral) (Caco-2 cell monolayers): 12.1^a ×10^-6 cm/s | Papp(basolateral→apical) (Caco-2 cell monolayers): 21.8^a ×10^-6 cm/s | apparent permeability in Caco-2 cell monolayers (Caco-2 cell monolayers): ≥ 10^-6 cm/s | detection in rat plasma [3]: could be detected

O=C(/C=C/c1ccc(O)c(O)c1)O[C@H](Cc1ccc(O)c(O)c1)C(=O)O [RA, rosmarinic acid]
solubility at 5 min [1]: > 10000 µg/mL | Papp(apical→basolateral) (Caco-2 cell monolayers): 0.523^a ×10^-6 cm/s | Papp(basolateral→apical) (Caco-2 cell monolayers): 0.550^a ×10^-6 cm/s

CC(C)=CCC[C@](C)(O[C@@H]1O[C@H](CO)[C@@H](O)[C@H](O)[C@H]1O)[C@H]1CC[C@]2(C)[C@@H]1[C@H](O)C[C@@H]1[C@@]3(C)CC[C@H](O)C(C)(C)[C@@H]3[C@@H](O[C@@H]3O[C@H](CO)[C@@H](O)[C@H](O)[C@H]3O[C@@H]3O[C@@H](C)[C@H](O)[C@@H](O)[C@H]3O)C[C@]12C [Re, ginsenoside Re]
solubility at 5 min [1]: > 10000 µg/mL | Papp(apical→basolateral) (Caco-2 cell monolayers): > 0.1^c ×10^-6 cm/s | Papp(basolateral→apical) (Caco-2 cell monolayers): > 0.1^c ×10^-6 cm/s | detection in rat plasma [3]: could be detected

O=C(/C=C/c1ccc(O)c(O)c1/C=C/c1ccc(O)c(O)c1)OC(Cc1ccc(O)c(O)c1)C(=O)O (stereo not shown) [SAA, SA A]
solubility at 5 min [1]: > 10000 µg/mL | Papp(apical→basolateral) (Caco-2 cell monolayers): 0.0595^a ×10^-6 cm/s | Papp(basolateral→apical) (Caco-2 cell monolayers): 0.0554^a ×10^-6 cm/s

O=C(/C=C/c1ccc(O)c2c1C(C(=O)OC(Cc1ccc(O)c(O)c1)C(=O)O)C(c1ccc(O)c(O)c1)O2)OC(Cc1ccc(O)c(O)c1)C(=O)O (stereo not shown) [SAB, SA B]
solubility at 5 min [1]: > 10000 µg/mL | Papp(apical→basolateral) (Caco-2 cell monolayers): 0.0200^a ×10^-6 cm/s | Papp(basolateral→apical) (Caco-2 cell monolayers): 0.0377^a ×10^-6 cm/s
